Data reported in patent publication US6096744A, “Sulfonamide derivatives of substituted quinoxaline 2,3-diones as glutamate receptor antagonists” (Warner-Lambert Company, priority 1998, dated 2000).

Key:
[1] = target: AMPA receptors; test: AMPA receptor binding affinity (Honore et al.)
[2] = target: kainate site (non-NMDA receptor); test: kainate site (non-NMDA receptor) binding affinity (London and Coyle)
[3] = target: T1, glycine site of the NMDA receptor (Rattus norvegicus, UniProt P35439); test: binding affinity for the glycine site of the NMDA receptor (Jones et al.)
T1 construct: from tissue

Row | IC50 [1] [µM] | IC50 KA [2] [µM] | IC50 [3] [µM] | Compound
1 | 0.21 | 0.29 | 0.1 | Cc1c([N+](=O)[O-])cc2[nH]c(=O)c(=O)[nH]c2c1CN(C)S(C)(=O)=O [Compound 1, N-Methyl-N-(6-methyl-7-nitro-2,3-dioxo-1,2,3,4-tetrahydro-quinoxalin-5-ylmethyl)-methanesulfonamide]
2 | 0.56 | 2.63 | > 1 | Cc1ccc(S(=O)(=O)N(C)Cc2c(C)c([N+](=O)[O-])cc3[nH]c(=O)c(=O)[nH]c23)cc1 [Compound 2, 4,N-Dimethyl-N-(6-methyl-7-nitro-2,3-dioxo-1,2,3,4-tetrahydro-quinoxalin-5-ylmethyl)-benzenesulfonamide]
3 | 2.6 | 4.77 | > 1 | Cc1c([N+](=O)[O-])cc2[nH]c(=O)c(=O)[nH]c2c1CN(C)S(=O)(=O)c1c(C(C)C)cc(C(C)C)cc1C(C)C [Compound 3, 2,4,6-Triisopropyl-N-methyl-N-(6-methyl-7-nitro-2,3-dioxo-1,2,3,4-tetrahydro-quinoxalin-5-ylmethyl)-benzenesulfonamide]
4 | 18 | 26.0 | > 1 | Cc1c([N+](=O)[O-])cc2[nH]c(=O)c(=O)[nH]c2c1CN(C)S(=O)(=O)c1ccc2ccccc2c1 [Compound 4, Naphthalene-2-sulfonic acid methyl-(6-methyl-7-nitro-2,3-dioxo-1,2,3,4-tetrahydro-quinoxalin-5-ylmethyl)-amide]
